Values of other authors in US12433863B2, “Pharmaceutical compositions and uses directed to lysosomal storage disorders” (INTRABIO LIMITED, priority 2016, dated 2025).

Tests used:
[1] = tested on: glycosphingolipid (GSL) biosynthesis; details: Patterson, 2006; cited from earlier work
[2] = tested on: rat model of an acute unilateral labyrinthectomy; details: Gunther et al. 2015; cited from earlier work

Compound	Benefit in clinical trial of substrate reduction therapy [1]	Effect on postural compensation [2]
CCCCN1C[C@H](O)[C@@H](O)[C@H](O)[C@H]1CO [miglustat]	some benefit	
CC(=O)N[C@@H](CC(C)C)C(=O)O [N-acetyl-L-leucine]		significant effect
